According to patent US20140255301A1, “METHODS FOR DETECTING NEURODEGENERATIVE DISEASES OR DISORDERS” (priority 2010, published 2014):
“Also recorded” adds a separate entry of the source. Numbered stars: 1 amine (or outer) side, 2 acyl side, 3 side chain; on linkers, the order of the positions; unused ones are H or OH. Bridge positions count the residues as written; N and C are the ends. Square brackets hold non-standard residues; d marks the D form. Peptide text beside a SMILES is read from it. I, II: the chains in the order shown. Actinocin(9to1) = Cc1c2oc3c(C)ccc(C(=O)[*:1])c3nc-2c(C(=O)[*:2])c(N)c1=O; NMeV = CN[C@H](C(=O)O)C(C)C; Sar = CNCC(=O)O

Columns and labels:
[1] = test system: axon degeneration of DRG neurons following NGF withdrawal; experiment: Campenot chamber localized axon degeneration after NGF withdrawal (Tuj1 immunostaining); format: cell-based, mouse; details: for axon degeneration due to NGF deprivation, inhibitor applied to the axon (axon inhibition): inhibitor in axon compartment, 28 hours NGF deprivation of axons, anti-NGF antibody 50 μg/ml; for axon degeneration due to NGF deprivation, inhibitor applied to the cell body (cell body inhibition): inhibitor in cell body compartment with 25 ng/ml NGF, axons deprived of NGF
Method: Campenot chambers were used to perform the following experiments which allow for the separation of somal and axonal environments, and permit the induction of localized degeneration (see FIG. 1 and, e.g., Zweifel et al., Nat. Rev. Neurosci. 6(8):615-625, 2005). In such chambers, axon degeneration is localized and proceeds without apoptosis.
Mouse laminin (5 μg/ml in sterile filtered water; Invitrogen) was added to PDL coated 35 mm dishes (BD Biosciences) and they were incubated for 1 hour at 37° C., followed by two rinses in SQ water. The dishes were vacuum-dried and then air-dried in a laminar flow hood for 15 minutes. Prepared dishes were then scored with a pin rake (Tyler Research). Fifty microliters of NBM+MC solution containing NGF was applied across the resulting score tracks. The NBM+MC solution was made as follows: 1750 mg of methylcellulose was combined with 480 ml of Neurobasal (Invitrogen), to which was added 4.5 ml penicillin/streptomycin, 7.5 ml L-glutamine, and 10 ml B-27 serum-free supplement (Invitrogen). The solution was mixed for one hour at room temperature, overnight at 4° C., and one further hour at room temperature. The solution was then filter sterilized, and 50 ng/ml NGF (Roche) was added prior to use. High vacuum grease (VWR) was added to each Teflon divider under a dissection scope. The laminin coated PDL dishes were inverted and dropped onto the Teflon divider, with additional pressure added by use of a toothpick in the non-track-containing regions. Dishes were incubated for 1 hour at 37° C. Five hundred microliters of NBM+MC (50 ng/ml NGF) solution was added to each of the side compartments, and a grease barrier was added in front of the center cell slot.
Free E13.5 spinal cords were dissected from mouse embryos and placed into NBM+MC (25 ng/ml NGF) solution. DRGs were detached from the spinal cord with a tungsten needle. An NBM+MC-lubricated P200 pipette was used to move DRGs into a 1.5 ml tube. DRGs were pelleted with a tabletop centrifuge for 30 seconds. The supernatant was discarded and 0.05% Trypsin/EDTA (cold) was added. The pellet was resolubilized with a pipette and incubated at 37° C. for 15 minutes with constant agitation (650 RPM). The sample was again centrifuged and the supernatant discarded. The pellet was resuspended in warm NBM+MC (50 ng/ml NGF) solution and triturated with a flamed glass pipette 20 times, followed by trituration with a fire-bored glass pipette another 20 times. The samples were again centrifuged and the resulting pellets were resuspended in 0.5 ml NBM+MC (50 ng/ml NGF) solution. The cells were diluted to a final concentration of 2.5×10^6 cells/ml. The cell suspensions were loaded into a 1 ml syringe with a 22 gauge needle. The center slot of the Campenot divider was filled using the syringe (to a volume of at least 50 μl). The Campenot chamber was incubated overnight at 37° C. 2.5 ml NGF+MC (50 ng/ml NGF) solution was added to the center compartment and the grease gate was removed. The outer medium (cell body compartment) was replaced after three days with 2.5 ml NBM+MC medium (with 25 ng/ml NGF).
After five days in culture, the axonal compartment was washed three times with warmed NBM+MC (no NGF) solution. After the third wash, 500 μl NBM+MC (no NGF) solution was added to the axon compartment in combination with either 0.5% DMSO or an inhibitor. The cell body compartment was replaced with 2.5 ml NBM+MC medium (with 25 ng/ml NGF) containing either 0.5% DMSO or inhibitor. Fifty μg/ml anti-NGF antibody was added to the axonal compartment. Another axon compartment was maintained in NGF as a control.
After 28 hours of NGF deprivation for axons, and 25 hours of NGF deprivation for cell bodies, 8% PFA/30% sucrose solution was added directly to the culture medium at a 1:1 dilution and incubated for 30 minutes. The Teflon divider was removed after the first 15 minutes of addition. […]

[2] = test system: dleu2 and tbx6 expression; experiment: Time course microarray analysis of neurons in Campenot chambers undergoing axon loss; format: cell-based, mouse; details: 30 μM inhibitor in outer compartment, NGF deprivation for 6 and 12 hours
Method: Based on the experiments described above, glycogen synthase kinase-3 (GSK-3) was identified as being a regulator of a genetic axon degeneration program acting specifically in the cell body to regulate distal axon degeneration. To identify GSK3 regulated axon degeneration genes, time course microarray analysis was performed on neurons selectively undergoing […], with or without GSK-3 inhibition.
Briefly, neurons were isolated and cultured in Campenot chambers as previously described. Campenot chambers were set up with 50 μM 5-fluoro-2′-deoxyuridine/uridine (both Sigma) added to the culture medium to reduce contamination by non-neuronal cells. On day 5, both axon compartments were washed three times with NGF-free medium and on the fourth wash, replaced with medium containing NGF (control) or NGF antibodies (50 μg/ml) (911, Genetech). The outer compartment was replaced with medium containing 30 μM of the GSK3 inhibitor ARA (EMD Biosciences) or 0.3% DMSO. RNA was extracted from neurons with or without GSK3 ARA treatment which had been cultured with NGF or deprived of NGF for 6 and 12 hours. RNA was prepared with Trizol® (Invitrogen) followed by the RNeasy® Micro Kit processing with DNAse I treatment (Qiagen) as described in Appendix C of the RNeasy® Micro Kit manual. For each condition, five Agilent Whole Mouse Genome microarray chips were used with single amplification.

Structure (SMILES) | axon degeneration due to NGF deprivation, inhibitor applied to the axon (axon inhibition) [1] | axon degeneration due to NGF deprivation, inhibitor applied to the cell body (cell body inhibition) [1] | axon degeneration due to NGF deprivation, inhibitor applied to the axon (axon inhibition) ([1]; listed as actinomycin D) | axon degeneration due to NGF deprivation, inhibitor applied to the cell body (cell body inhibition) ([1]; listed as actinomycin D) | overexpression of dleu2 and tbx6 in neurons deprived of NGF [2] | overexpression of dleu2 and tbx6 in neurons deprived of NGF ([2]; listed as GSK3.ARA)
N#C/C(=C\c1ccc(O)c(O)c1)C(=O)NCCCc1ccccc1 [AG555] | exhibited less degeneration; also recorded: prevented axonal degradation | failed to prevent degeneration; also recorded: did not provide the same protective effect | – | – | – | –
Cc1c2oc3c(C)ccc(C(=O)N[C@@H]4C(=O)N[C@H](C(C)C)C(=O)N5CCC[C@H]5C(=O)N(C)CC(=O)N(C)[C@@H](C(C)C)C(=O)O[C@@H]4C)c3nc-2c(C(=O)N[C@@H]2C(=O)N[C@H](C(C)C)C(=O)N3CCC[C@H]3C(=O)N(C)CC(=O)N(C)[C@@H](C(C)C)C(=O)O[C@@H]2C)c(N)c1=O [Act D, actinomycin D] (I: T[dV]P[Sar][NMeV] / II: T[dV]P[Sar][NMeV]; ester I:1-I:C, II:1-II:C; linker I:N-II:N via Actinocin(9to1)) | did not prevent axonal degradation | axon degradation due to NGF deprivation was reduced | did not provide the same protective effect | prevented axonal degeneration | – | –
COc1ccc(CNC(=O)Nc2ncc([N+](=O)[O-])s2)cc1 [GSK3 ARA] | – | – | – | – | overexpression of these genes is not observed at any time point | Increased expression of dleu2 and tbx6 is not observed
COc1nccc(-c2c(-c3ccc(F)cc3)ncn2C2CCC(O)CC2)n1 (stereo not drawn) [SB239] | exhibited less degeneration; also recorded: prevented axonal degradation | failed to prevent degeneration; also recorded: did not provide the same protective effect | – | – | – | –
O=C1NC(=O)C(c2ccccc2[N+](=O)[O-])=C1Nc1ccc(O)c(Cl)c1 [SB415] | did not prevent axonal degradation; also recorded: did not provide the same protective effect | axon degradation due to NGF deprivation was reduced; also recorded: prevented axonal degeneration | – | – | – | –
